{
  "source": "patent US20250263404A1",
  "about": "“AMINOPYRIDINES AS ACTIVATORS OF PI3 KINASE” (UCL Business Ltd, priority 2021, published 2025)",
  "key": {"[1]": {"target": "PI3Kα (Homo sapiens, UniProt P42336)", "sequence (P42336 whole entry)": "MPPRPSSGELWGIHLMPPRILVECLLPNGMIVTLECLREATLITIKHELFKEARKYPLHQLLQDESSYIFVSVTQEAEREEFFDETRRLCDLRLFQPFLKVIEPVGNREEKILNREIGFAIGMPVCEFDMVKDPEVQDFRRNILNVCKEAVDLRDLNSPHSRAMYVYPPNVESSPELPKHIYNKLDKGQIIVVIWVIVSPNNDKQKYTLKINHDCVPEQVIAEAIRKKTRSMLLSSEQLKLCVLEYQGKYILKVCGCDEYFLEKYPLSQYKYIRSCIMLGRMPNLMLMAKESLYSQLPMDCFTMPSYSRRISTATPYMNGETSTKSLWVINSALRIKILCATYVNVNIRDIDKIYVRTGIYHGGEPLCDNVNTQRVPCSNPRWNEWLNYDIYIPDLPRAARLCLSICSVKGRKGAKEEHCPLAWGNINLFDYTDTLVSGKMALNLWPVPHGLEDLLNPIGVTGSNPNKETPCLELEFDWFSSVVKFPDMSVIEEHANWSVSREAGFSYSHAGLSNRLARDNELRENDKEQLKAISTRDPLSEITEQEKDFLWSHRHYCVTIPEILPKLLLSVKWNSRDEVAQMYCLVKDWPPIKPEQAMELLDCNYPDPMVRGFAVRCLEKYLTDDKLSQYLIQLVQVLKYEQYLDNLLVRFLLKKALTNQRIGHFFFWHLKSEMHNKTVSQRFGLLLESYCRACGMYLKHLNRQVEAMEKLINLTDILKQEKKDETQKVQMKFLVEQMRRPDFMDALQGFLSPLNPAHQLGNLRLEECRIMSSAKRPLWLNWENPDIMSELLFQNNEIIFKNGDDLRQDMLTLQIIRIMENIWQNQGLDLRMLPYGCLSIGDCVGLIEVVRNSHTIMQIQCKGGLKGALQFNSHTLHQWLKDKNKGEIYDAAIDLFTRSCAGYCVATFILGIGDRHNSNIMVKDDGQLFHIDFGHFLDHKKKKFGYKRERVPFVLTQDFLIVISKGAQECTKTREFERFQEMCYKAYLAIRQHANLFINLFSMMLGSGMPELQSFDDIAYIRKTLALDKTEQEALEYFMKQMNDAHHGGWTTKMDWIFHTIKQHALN", "sequence (P27986 whole entry partner)": "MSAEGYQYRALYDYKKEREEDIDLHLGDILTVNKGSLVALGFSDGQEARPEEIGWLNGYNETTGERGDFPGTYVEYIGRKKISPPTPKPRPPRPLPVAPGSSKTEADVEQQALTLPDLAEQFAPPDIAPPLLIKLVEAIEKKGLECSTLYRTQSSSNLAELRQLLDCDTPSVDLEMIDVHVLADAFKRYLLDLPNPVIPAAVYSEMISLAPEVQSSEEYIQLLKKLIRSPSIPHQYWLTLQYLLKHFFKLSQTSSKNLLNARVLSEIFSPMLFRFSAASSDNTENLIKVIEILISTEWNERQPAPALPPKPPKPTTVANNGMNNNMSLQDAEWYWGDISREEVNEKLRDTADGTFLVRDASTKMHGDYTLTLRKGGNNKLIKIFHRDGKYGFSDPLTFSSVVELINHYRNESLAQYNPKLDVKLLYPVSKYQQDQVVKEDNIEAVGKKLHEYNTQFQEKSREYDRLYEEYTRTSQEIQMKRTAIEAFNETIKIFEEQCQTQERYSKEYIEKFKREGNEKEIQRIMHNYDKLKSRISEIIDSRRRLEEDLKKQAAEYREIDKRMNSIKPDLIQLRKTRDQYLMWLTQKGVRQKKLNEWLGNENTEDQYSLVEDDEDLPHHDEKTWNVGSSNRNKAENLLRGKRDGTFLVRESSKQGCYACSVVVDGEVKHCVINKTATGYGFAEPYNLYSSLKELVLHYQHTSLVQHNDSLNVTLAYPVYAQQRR", "experiment": "FRET membrane binding assay, PI3Kα", "type": "biochemical", "parameters": "Full-length p110α was expressed in a complex with full-length p85α (for biochemistry and HDX-MS); 6xHis followed by TEV protease site (N); made in house; host or cells: Spodoptera frugiperda Sf9 (baculovirus co-infection; plasmids OP831 and OP809)", "details": "compared with pY", "protocol": "Membrane binding assays were performed as previously published (Burke, J. E. et al. Proc Natl Acad Sci USA 109, 15259-15264 (2012)). Briefly, liposomes were prepared with 5% (w/v) brain PtdIns(4,5)P2, 20% brain phosphatidylserine, 35% brain phosphatidylethanolamine, 15% brain phosphatidylcholine, 10% cholesterol, 5% sphingomyelin, and 10% dansyl-phosphatidylserine (Avanti Polar Lipids). PI3Kα was used at a final concentration of 0.5 μM. Protein solutions were preincubated with 10 μM pY or compounds for 10 min before addition of liposomes. Liposomes were used at a final concentration of 50 μg/ml. The reaction mixture contained 5 μl enzyme, 2 μl compound and 3 μl liposomes, all diluted in 30 mM HEPES, 50 mM NaCl, pH 7.4. The reaction was allowed to proceed for 10 min at room temperature in 384 black-polystyrene plates (Corning #3544) on an orbital shaker at 200 rpm. FRET signals were measured using PHERAStar (BMG) with a 280 nm excitation filter with 350 nm and 520 nm emission filters to measure Dansyl-PS FRET emissions, respectively. FRET signal shown as I-I0, where I is the intensity at 520 nm, and 10 is the intensity at 520 nm for the solution in the absence of protein."}, "[2]": {"target": "LCK (Homo sapiens, UniProt P06239)", "sequence (P06239 whole entry)": "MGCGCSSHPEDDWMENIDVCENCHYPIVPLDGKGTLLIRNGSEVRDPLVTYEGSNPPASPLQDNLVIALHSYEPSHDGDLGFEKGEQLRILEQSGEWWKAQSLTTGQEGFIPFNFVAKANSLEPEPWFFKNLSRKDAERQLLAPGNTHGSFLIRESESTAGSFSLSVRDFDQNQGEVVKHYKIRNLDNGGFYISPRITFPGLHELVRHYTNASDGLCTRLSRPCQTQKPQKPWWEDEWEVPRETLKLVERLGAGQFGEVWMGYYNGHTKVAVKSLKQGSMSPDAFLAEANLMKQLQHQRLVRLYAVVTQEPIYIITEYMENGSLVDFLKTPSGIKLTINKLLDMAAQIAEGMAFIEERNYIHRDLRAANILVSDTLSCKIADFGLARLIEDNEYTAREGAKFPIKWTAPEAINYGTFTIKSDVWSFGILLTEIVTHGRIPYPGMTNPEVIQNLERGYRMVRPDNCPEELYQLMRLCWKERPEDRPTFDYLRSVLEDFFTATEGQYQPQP", "experiment": "SelectScreen kinase profiling, LCK", "type": "biochemical", "details": "1 μM of 1938, 50 μM ATP", "protocol": "133 protein kinases and 7 lipid kinases were counterscreened, with […] used at 1 μM, using the Adapta, Lantha and Z-LYTE assays (SelectScreen Kinase Profiling Service; Thermofisher—experimental details of these assays can be found here: https://www.thermofisher.com/uk/en/home/industrial/pharma-biopharma/drug-discovery-development/target-and-lead-identification-and-validation/kinasebiology/kinase-activity-assays.html. The tree representation in KinMap generated courtesy of Cell Signaling Technology, Inc. (www.cellsignal.com). mTORC1 (mTOR/RAPTOR/LST8) protein complex and ATM kinase and substrates were produced as previously described (Anandapadamanaban, M. et al. Science (New York, NY 366, 203-210 (2019); Baretic, D. et al. Sci Adv 3, e1700933 (2017). Screening of 1938 was conducted using SuperSep Phos-Tag 50 μmol/l 100×100×6.6 mm 17-well (192-18001/199-18011) gels. For ATM assays, 100 nM ATM was incubated for 30 min at 30° C. with 5 μM GST-p53 and 1 mM ATP, in the absence or presence of 200 μM 1938 in ATM Kinase Buffer (50 mM HEPES pH 7.5, 100 mM NaCl, 10% glycerol, 2 mM […], 5 mM MgCl2). […] Gels were then stained using InstantBlue™ Coomassie stain, and then quantified using BioRad Image Lab Software. […]"}, "[3]": {"system": "PI3Kα-WT and PI3Kα-KO MEFs", "experiment": "CellTiter-Glo ATP content in MEFs", "type": "cell-based, mouse", "protocol": "A role for PI3Kα in activation of anabolic metabolism, cell cycle progression and cell proliferation is well-established.\nMEFs were seeded at 5000 cells per well in 96-well plates in DMEM supplemented with 10% FBS and 1% P/S, and allowed to attach overnight. The next day, cells were serum starved for 4 h prior to compound treatment in fresh serum-free DMEM. Compounds solubilised in DMSO were diluted 1:2 in a 12-point concentration response curve in DMSO. Intermediate plates were prepared by transferring 4 μl of compounds in DMSO into 96 μl of serum-free DMEM media. This was then used to treat cell plates by transferring 12.5 μl of solution from the intermediate plate into 87.5 μl of serum-free DMEM in the cell plates. […] Cell plates were incubated for 24 h, 48 h or 72 h at 37° C., 5% CO2, followed by determination of cell survival using the CellTiter-Glo® reagent according to manufacturer's instructions (Promega #G7571). Endpoint luminescence was measured using CLARIOstar (BMG). Compound data were analyzed using GraphPad Prism 8."}},
  "note": "pEC50: −log10 of the molar value.",
  "data": [
    {"smiles": "CCN1CCN(c2ccc(Nc3cc(Nc4cccc5c4N(C(C)=O)CC5)ccn3)cc2)CC1", "note": "[Example 1938]", "values": [
      {"measurement": "binding of PI3Kα to lipid membranes, maximum level", "setting": "[1]", "result": "about half of that induced by pY"},
      {"measurement": "inhibition of LCK", "setting": "[2]", "result": 58, "unit": "%"},
      {"measurement": "concentrations that decreased ATP levels (PI3Kα-independent effects)", "setting": "[3]; 24 h incubation, PI3Kα-WT and PI3Kα-KO MEFs", "result": "> 7.5", "unit": "µM"},
      {"measurement": "concentrations with non-PI3Kα-dependent effects", "setting": "[3]; 48 h and 72 h incubation", "result": "≥ 2", "unit": "µM"},
      {"measurement": "pEC50", "setting": "[3]; Mus musculus, PI3Kα-WT MEFs, CellTiterGlo, read-out: EC50 of increase in metabolic activity (ATP content)", "result": "~6.30"}
    ]}
  ]
}
